Reference: patent US5874442A, “Tricyclic amides useful for inhibition of G-protein function and for treatment of proliferative disease” (Schering-Plough Corporation, priority 1996, dated 1999)
pIC50: −log10 of the molar value.

Key:
[1] = tested on: Ras-CVLS processing in COS cells; test: Cell-based COS cell assay: inhibition of Ras processing (Ras-CVLS); design: species or system monkey; settings: Primates, COS, read-out: Inhibition of Ras Processing IC50, Table 3, COS cells
Text: Transient expression of val^12 -Ha-Ras-CVLS and […] -Ha-Ras-CVLL in COS monkey kidney cells: Effect of farnesyl protein transferase inhibitors on Ras processing and on disordered cell growth induced by transforming Ras.
COS monkey kidney cells were transfected by electroporation with the plasmid pSV-SPORT (Gibco/BRL) containing a cDNA insert encoding either Ras-CVLS or Ras-CVLL, leading to transient overexpression of a Ras substrate for either farnesyl protein transferase or geranylgeranyl protein transferase I, respectively (see above).
Following electroporation, cells were plated into 6-well tissue culture dishes containing 1.5 ml of Dulbecco's-modified Eagle's media (GIBCO, Inc.) supplemented with 10% fetal calf serum and the appropriate farnesyl protein transferase inhibitors. After 24 hours, media was removed and fresh media containing the appropriate drugs was re-added.
48 hours after electroporation cells were examined under the microscope to monitor disordered cell growth induced by transforming Ras. Cells expressing transforming Ras become more rounded and refractile and overgrow the monolayer, reminiscent of the transformed phenotype. Cells were then photographed, washed twice with 1 ml of cold phosphate-buffered saline (PBS) and removed from the dish by scraping with a rubber policeman into 1 ml of a buffer containing 25 mM Tris, pH 8.0; 1 mM ethylenediamine tetraacetic acid; 1 mM phenylmethylsulfonyl fluoride; […]; and 0.1 mM pepstatin. Cells were lysed by homogenization and cell debris was removed by centrifugation at 2000× g for 10 min.
Cellular protein was precipitated by addition of ice-cold trichloroacetic acid and redissolved in […] of SDS-electrophoresis sample buffer. […] Proteins resolved on the gels were electroblotted onto nitrocellulose membranes for immunodetection.
After washing, membranes were incubated for one hour at room temperature with a 1:5000 dilution of secondary antibody, rabbit anti-rat lgG conjugated to horseradish peroxidase, in PBS containing 1% fetal calf serum. The presence of processed and unprocessed Ras-CVLS or Ras-CVLL was detected using a colorimetric peroxidase reagent (4-chloro-1-naphthol) as described by the manufacturer (Bio-Rad).

K ras NIH 3T3 = test: Soft agar assay; assay type: cell-based; settings: Mus musculus, NIH3T3, read-out: IC50, inhibition of human tumor cell growth, soft agar
[2] = tested on: DLD-1 (human colon carcinoma cells); test: In vivo anti-tumor studies, subcutaneous DLD-1 tumors in athymic nu/nu mice; design: species or system athymic nu/nu female mice; settings: Mus musculus, DLD-1, po, […], read-out: Average % Tumor Inhibition
Experimental: Tumor bearing animals are selected and randomized when the tumors are established. Animals are treated with vehicle (β-cyclodextrin for i.p. or corn oil for p.o.) only or with a compound of the present invention in vehicle four times a day (QID) for 7 days per week for 4 weeks. The percent inhibition of tumor growth relative to vehicle controls is determined by tumor measurements.

[3] = tested on: Normal human HEPM fibroblasts; test: Cell mat assay, normal cells (cell mat); assay type: cell-based; settings: Homo sapiens, Fibroblast, 336 h, read-out: Normal IC50
Experimental: Compound-induced colony inhibition was assayed by addition of serial dilutions of compound directly to the growth medium 24 h after tumor cell planting, and incubating cells for an additional 14 d to allow colony formation. Assays were terminated by rinsing monolayers twice with phosphate-buffered saline (PBS), fixing the monolayers with a 1% glutaraldehyde solution in PBS, then visualizing tumor cells by staining with X-Gal (Price, J., et al., Lineage analysis in the vertebrate nervous system by retrovirus-mediated gene transfer, Proc. Natl. Acad. Sci.84, 156-160(1987)). […] Both IC50 values were obtained by determining the density of tumor cells and mat cells by visual inspection and enumeration of cells per colony and the number of colonies under the microscope.

NC(=O)N1CCC(CC(=O)N2CCC([C@H]3c4ncc(Br)cc4CCc4cc(Cl)cc(Br)c43)CC2)CC1 [Example 10]
pIC50 [1]: > 7.60
pIC50 (K ras NIH 3T3): 6.40
inhibition in vivo at 10 mg/kg [2]: 49%
inhibition in vivo at 50 mg/kg [2]: 77%
pIC50 [3]: < 4.60
